In ChEMBL document CHEMBL2331232, “Α-mangostin and gambogic acid as potential inhibitors of the p53-MDM2 interaction revealed by a yeast approach” (J Nat Prod, 2013) one finds inhibition data, which are given here for 2 molecules.

Assay [1] relates to Cellular tumor antigen p53 (Homo sapiens), P04637 [R280K]. In words: Inhibition of human p53 R280K mutant expressed in Saccharomyces cerevisiae CG379 assessed as effect on cell growth at 10 uM after 31 hrs.
Assay [2] has as its target Cellular tumor antigen p53 (Homo sapiens) (UniProt P04637). In words: Inhibition of human p53 expressed in Saccharomyces cerevisiae CG379 assessed as effect on cell growth at 1 to 100 uM after 42 hrs.
Assay [3] has the same target. The assay can be described thus: Inhibition of human p53 expressed in Saccharomyces cerevisiae CG379 assessed as effect on cell cycle arrest at 1 to 100 uM after 42 hrs.
Assay [4] addresses E3 ubiquitin-protein ligase Mdm2 (Homo sapiens) (UniProt Q00987). The assay can be described thus: Inhibition of human MDM2 expressed in Saccharomyces cerevisiae CG379 assessed as effect on cell cycle arrest at 1 to 100 uM after 42 hrs.

Activity calls are given as the source filed them. No cut-off for these calls is given here.

Chain of Cellular tumor antigen p53 (Homo sapiens) (P04637 whole entry, looked up): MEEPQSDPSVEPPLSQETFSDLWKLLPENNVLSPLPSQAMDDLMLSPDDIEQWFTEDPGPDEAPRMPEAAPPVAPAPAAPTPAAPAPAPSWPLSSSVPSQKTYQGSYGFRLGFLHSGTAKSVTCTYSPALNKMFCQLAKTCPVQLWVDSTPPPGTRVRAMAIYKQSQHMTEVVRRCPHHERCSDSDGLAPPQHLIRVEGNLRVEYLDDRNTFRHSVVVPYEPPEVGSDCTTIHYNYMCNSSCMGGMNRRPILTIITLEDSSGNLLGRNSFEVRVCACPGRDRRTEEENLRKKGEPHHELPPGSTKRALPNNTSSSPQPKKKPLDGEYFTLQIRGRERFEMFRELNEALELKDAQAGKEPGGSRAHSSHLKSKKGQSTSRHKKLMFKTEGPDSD
Chain of E3 ubiquitin-protein ligase Mdm2 (Homo sapiens) (Q00987 whole entry, looked up): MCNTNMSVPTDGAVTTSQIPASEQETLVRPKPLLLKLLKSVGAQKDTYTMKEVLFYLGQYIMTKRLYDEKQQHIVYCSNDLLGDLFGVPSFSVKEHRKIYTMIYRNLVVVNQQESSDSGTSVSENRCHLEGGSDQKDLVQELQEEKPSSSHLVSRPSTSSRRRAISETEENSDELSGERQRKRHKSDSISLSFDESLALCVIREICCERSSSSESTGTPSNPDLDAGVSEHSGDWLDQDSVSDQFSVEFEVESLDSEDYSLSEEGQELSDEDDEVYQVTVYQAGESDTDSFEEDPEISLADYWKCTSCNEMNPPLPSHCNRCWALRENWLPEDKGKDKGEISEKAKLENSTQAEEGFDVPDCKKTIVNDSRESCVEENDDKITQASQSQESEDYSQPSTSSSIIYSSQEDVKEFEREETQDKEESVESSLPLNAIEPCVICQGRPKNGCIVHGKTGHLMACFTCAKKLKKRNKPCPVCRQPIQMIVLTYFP

`COc1c(O)cc2oc3cc(O)c(CC=C(C)C)c(O)c3c(=O)c2c1CC=C(C)C`: the inhibition entry in assay [1], in assay [2], in assay [3] and in assay [4] was “inactive” throughout.
As to `CC(C)=CCC[C@]1(C)C=Cc2c(O)c3c(c(CC=C(C)C)c2O1)O[C@]12C(=C[C@@H]4C[C@H]1C(C)(C)O[C@@]2(C/C=C(/C)C(=O)O)C4=O)C3=O`, the inhibition entry in assay [1], in assay [2] and in assay [3] was “inactive” throughout. In assay [4], the inhibition result is “Active”.
